Consider one compound from US20070043079A1, “Heterocyclic compound containing nitrogen atom and use thereof” (priority 2003, published 2007).

Counter-ions that a name gives are not always drawn.

In this test the target is T1, human CCR5 (Homo sapiens, UniProt P51681).
T1 construct: expressed in transfected cells
In words: Inhibition test on the binding of RANTES to CCR5 (RANTES-induced transient increase of Ca ion) in CCR5/CHO cells. The test is classed as cell-based. As to the method:
The whole procedures were carried out by preparing gene high expressing cells under basic genetic engineering methods by utilizing conventional methods. Also, as to the methods for the measurement in the present invention, improvement of measurement accuracy and/or modification of measurement sensitivity were adopted in order to evaluate the compound of the present invention. Detailed methods for the experiment are illustrated below.
(1) Isolation of Human CCR5 Genes
Human placental cDNA was prepared using Marathon cDNA amplification kit (Clontech). […]
Thus established human CCR5 stable over-expressing CHO cells (CCR5/CHO cells) were suspended in Ham's F-12 medium containing FBS (10%) and dispensed in […] portions into a 96 well plate. […] Transient increase in the intracellular Ca^2+ concentration induced by the human RANTES was measured using a Ca^2+ detector for 96 well use (Hamamatsu Photonics), and inhibition ration (%) of the test compound was calculated by the following calculation formula. Inhibition ratio=(Ec−Ea)/Ec×100 • Ec: measured value of Ca^2+ transient increase by RANTES • Ea: measured value of Ca^2+ transient increase by RANTES when a test compound was added

T1 sequence (P51681 whole entry): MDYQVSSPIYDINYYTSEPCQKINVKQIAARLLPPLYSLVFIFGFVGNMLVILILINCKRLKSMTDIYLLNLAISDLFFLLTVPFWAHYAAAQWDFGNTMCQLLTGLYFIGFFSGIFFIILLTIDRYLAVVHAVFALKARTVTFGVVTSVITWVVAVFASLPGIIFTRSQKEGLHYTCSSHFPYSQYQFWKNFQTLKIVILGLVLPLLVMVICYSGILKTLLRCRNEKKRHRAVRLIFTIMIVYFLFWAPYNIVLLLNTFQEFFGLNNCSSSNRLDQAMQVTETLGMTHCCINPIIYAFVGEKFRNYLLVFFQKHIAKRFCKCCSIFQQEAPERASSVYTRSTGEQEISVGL

Broadly, the IC50 is the point on the concentration scale where inhibition reaches its midpoint. Read a low IC50 as inhibition by little substance. As to `COc1ccc(CN2CCC(c3ccc(CNC(=O)c4ccc(Cl)cc4)cc3)CC2)cc1OC` [Example 1, 4-chloro-N-{4-[1-(3,4-dimethoxybenzyl)piperidin-4-yl]benzyl}benzamide hydrochloride], the IC50 was 4.16 µM.
